The values that follow come from PubChem BioAssay AID1552 (Sanford-Burnham Center for Chemical Genomics, 2009).

The source made the active and inactive calls. The rule behind the calls is not given here.

The term Kd denotes the concentration at which binding is half-saturated.

For this experiment, the target named is Ubiquitin-conjugating enzyme E2 N (Homo sapiens) (UniProt P61088). In words: NMR detection of UBE2N ligand binding – biophysical, purified protein (AID 1552). The following applies: NMR binding to purified UBE2N.
Chain of Ubiquitin-conjugating enzyme E2 N (Homo sapiens) (P61088 whole entry, looked up): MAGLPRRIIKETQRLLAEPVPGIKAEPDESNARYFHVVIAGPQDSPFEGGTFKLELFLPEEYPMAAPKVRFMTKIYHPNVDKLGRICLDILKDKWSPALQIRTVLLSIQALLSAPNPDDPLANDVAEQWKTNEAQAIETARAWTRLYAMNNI
Turning to `Cc1ccc(NC(=O)C(=O)Nc2ccccn2)cc1`, the Kd is > 4 mM (inactive). In the case of `CC(=O)c1cccc(NC(=O)NN2CCOCC2)c1` it was > 4 mM (inactive). As for `Cc1cc(C(=O)NC2=NCCS2)cs1`, the Kd is > 4 mM (inactive). The result for `CSc1nn(-c2ccccc2)c(N)c1C#N` reads > 4 mM (inactive); that for `CN(C)Cc1nc2c([nH]1)c(=O)[nH]c(=O)n2C`, > 4 mM (inactive). Turning to `Cc1cc(C)n(CCC(=O)O)n1`, the Kd was > 4 mM (inactive). Consider `CN(Cc1nc2ccccc2n1C)C(=O)c1cccs1`, for which the Kd was > 4 mM (inactive).

For `OCCOc1ccc(C2=NCCO2)cc1`, the Kd was > 4 mM (inactive).

As for `Cn1nc(C(=O)Nc2cccnc2)cc1Cl`, the Kd is > 4 mM (inactive). In the case of `O=C(c1cc(Cl)cc(Cl)c1)N1CCOCC1`, the Kd is > 4 mM (inactive).

With `Nc1nc(-c2ccc(Cl)cc2)nn1C(=O)c1cccnc1`, the Kd is > 4 mM (inactive).

In the case of `COc1cc(OC)c2c(=O)c(-c3ccccc3)coc2c1`, the Kd is > 4 mM (inactive). In the case of `S=C(Nc1ccc2nccnc2c1)N1CCOCC1` it was > 4 mM (inactive); in that of `Nc1cccc2c(=O)[nH][nH]c(=O)c12`, > 4 mM (inactive). In the case of `CS(=O)(=O)N1CCC(C(=O)NC2CCCC2)CC1` it was > 4 mM (inactive). On to `O=C(NC1=NCCS1)c1csc2ccccc12`, for which the Kd was > 4 mM (inactive). The result for `C=CC1=C(C)/C(=C/c2[nH]c(Cc3[nH]c(/C=C4\NC(=O)C(C)=C4C=C)c(C)c3CCC(=O)O)c(CCC(=O)O)c2C)NC1=O` reads > 4 mM (inactive).

With `O=C(Nc1ccccc1CO)c1ccccc1F`, the Kd was > 4 mM (inactive).

On to `O=c1cccc2n1CC1CC2CN2CCCC[C@@H]12` (some centres not stated), for which the Kd was > 4 mM (inactive). The result for `Cc1nn(-c2ccccc2)nc1CN` reads > 4 mM (inactive); that for `O=C(O)c1cc2ccccc2cn1`, > 4 mM (inactive); that for `NC(=O)CSCc1c(Cl)cccc1Cl`, > 4 mM (inactive). In the case of `COc1ccc(C2CC(=O)NN2)cc1OC1CCCC1` (configuration not stated) it was > 4 mM (inactive); in that of `CC12OC(=O)CC3C(C)(C)[C@H](O)C=C[C@]3(C)C1CC[C@]1(C)C2=CC(=O)O[C@H]1c1ccoc1` (some centres not stated), > 4 mM (inactive).

Take `CC(=O)NC1=NN(c2ccccc2)C(=O)C1`: the Kd is > 4 mM (inactive).

Take `Cc1ccc(/C=N/n2c(C)nnc2C)cc1`: the Kd is > 4 mM (inactive). In the case of `COc1cc([C@@H]2c3cc4c(cc3C(OC3O[C@@H]5COC(C)O[C@H]5[C@H](O)[C@H]3O)C3COC(=O)[C@@H]32)OCO4)cc(OC)c1O` (some centres not stated) it was > 4 mM (inactive). In the case of `Cc1ccc(/C=C2/NC(=S)NC2=O)s1` it was > 4 mM (inactive). As to `Oc1ccc(-n2ccnc2)cc1`, the Kd is > 4 mM (inactive). In the case of `CC(=O)O[C@]1(C)CC[C@@]23CC1C(C)(C)[C@@H]2CC[C@H]3C` it was > 4 mM (inactive); in that of `CC1C[C@H]2CC(=O)[C@H]3CCCN4CCC[C@H]2[C@]34C1` (some centres not stated), > 4 mM (inactive); in that of `CC(=O)Nc1ccc(NC2SC(=O)NC2=O)cc1` (configuration not stated), > 4 mM (inactive). As for `COC(=O)C1CCc2ccccc2N1` (configuration not stated), the Kd was > 4 mM (inactive). In the case of `NC1=NC(=O)C(CC(=O)Nc2ccccc2F)S1` (configuration not stated) it was > 4 mM (inactive); in that of `COc1ccc(S(N)(=O)=O)cc1`, > 4 mM (inactive).

With `Cn1cnnc1SCC(=O)Nc1nccs1`, the Kd was > 4 mM (inactive). The result for `NC(=O)CSCc1ccc(Br)cc1` reads > 4 mM (inactive). Take `NC(=O)c1cccc2c1OCCO2`: the Kd is > 4 mM (inactive).

As for `OCc1nccn1Cc1ccccc1`, the Kd was > 4 mM (inactive). The result for `Brc1cccc(-c2nnco2)c1` reads > 4 mM (inactive); that for `O=C(O)CNS(=O)(=O)c1cccs1`, > 4 mM (inactive); that for `N=c1c2c3c(sc2ncn1N)CCCC3`, > 4 mM (inactive). For `Cc1occc1C(=O)N1CCC2(CC1)OCCO2`, the Kd was > 4 mM (inactive).

As to `COc1cc(C2NC(=S)NC(C)=C2C(C)=O)ccc1O` (configuration not stated), the Kd was > 4 mM (inactive). As to `COC(=O)Cn1c2ccccc2c2nc(C)sc21`, the Kd was > 4 mM (inactive). In the case of `Nc1ccc(OC(F)(F)F)cc1` it was > 4 mM (inactive); in that of `Cc1ccc(C(=O)Nc2c[nH]c(=O)[nH]c2=O)cc1`, > 4 mM (inactive). In the case of `O=C(O)CSCc1c(F)cccc1Cl` it was > 4 mM (inactive); in that of `COC(=O)Cc1csc(N)n1`, > 4 mM (inactive); in that of `Cc1c(C)n2c(SCC(N)=O)nnc2[nH]c1=O`, > 4 mM (inactive).

Consider `Cc1nc(-c2ccccc2)sc1CO`, for which the Kd is > 4 mM (inactive). In the case of `CC1NC(C(=O)O)Cc2c1[nH]c1ccccc21` (configuration not stated) it was > 4 mM (inactive); in that of `Nc1nc(N)nc(N2C(=O)c3ccccc3C2=O)n1`, > 4 mM (inactive); in that of `COc1cc2c(cc1-c1coc3c4c(c(OC)cc3c1=O)OC(C)(C)C=C4)OCO2`, > 4 mM (inactive). In the case of `CSc1ncc(CO)n1Cc1ccccc1` it was > 4 mM (inactive).

Consider `O=C(O)CC(O)c1nc2ccccc2[nH]1` (configuration not stated), for which the Kd is > 4 mM (inactive). In the case of `Cc1ncc(C(=O)O)c(-c2ccccc2)n1` it was > 4 mM (inactive). With `Nc1nc2c3ccccc3nc(Cc3ccccc3)n2n1`, the Kd was > 4 mM (inactive).

For the compound `O=C(NN1CCOCC1)c1cccs1`, the Kd was > 4 mM (inactive). As to `CCc1sc(C(=O)NC)cc1Br`, the Kd is > 4 mM (inactive). The result for `CC1CC2(NC(=O)NC2=O)C(C)CN1C` (configuration not stated) reads > 4 mM (inactive). The result for `CC(C)=CCOc1c2occc2cc2ccc(=O)oc12` reads > 4 mM (inactive); that for `COc1cc2c(cc1OC)Cc1cc(OC)c(OC)cc1Cc1cc(OC)c(OC)cc1C2`, > 4 mM (inactive). The result for `CN1CCOc2cc(C(=O)O)ccc21` reads > 4 mM (inactive); that for `Nc1ccc(-c2cnco2)cc1`, > 4 mM (inactive); that for `O=C(O)CSc1cccc2cccnc12`, > 4 mM (inactive). With `O=C(O)C1CCN(S(=O)(=O)c2cccs2)CC1`, the Kd was > 4 mM (inactive). With `Cc1nc2ccccc2c(=O)n1/N=C/c1ccncc1`, the Kd is > 4 mM (inactive).

Regarding `Cc1ccc(S(C)(=O)=O)s1`, the Kd was > 4 mM (inactive). In the case of `CC(=O)Oc1cccc2ccc(=O)[nH]c12` it was > 4 mM (inactive); in that of `O=[N+]([O-])c1ccc2c(c1)N([O-])C1(CCCCC1)[N+]2=O`, > 4 mM (inactive); in that of `Nc1ncnc(Nc2ccccc2C(F)(F)F)n1`, > 4 mM (inactive).

Turning to `Cc1cc(C)c2ccc[n+]([O-])c2c1O`, the Kd is > 4 mM (inactive). In the case of `Cc1c(O)c(O)cc2c1CC=C1[C@@]2(C)CC[C@@]2(C)C3C[C@](C)(C(=O)O)CC[C@]3(C)CC[C@]12C` (some centres not stated), the Kd was > 4 mM (inactive).

Take `CC(=O)NC(NC(C)=O)c1ccccc1`: the Kd is > 4 mM (inactive).

For the compound `CCCN1CCC(N2CCC(O)CC2)CC1`, the Kd was > 4 mM (inactive).

In the case of `COc1cnn(Cc2ccccc2)c(=O)c1Cl`, the Kd was > 4 mM (inactive). The result for `CC(=O)c1c(C)n(O)c2ccc3nonc3c12` reads > 4 mM (inactive); that for `CNC(=O)C1COc2ccccc2O1` (configuration not stated), > 4 mM (inactive).

Regarding `CC(=O)N1C(=S)NC(=O)/C1=C\c1cccnc1`, the Kd was > 4 mM (inactive).

On to `Cc1cc(C(=O)Nc2ccc3c(c2)OCO3)cs1`, for which the Kd was > 4 mM (inactive). The result for `Fc1ccc(F)c(CN2CCN(c3ncccn3)CC2)c1` reads > 4 mM (inactive). The result for `Cn1c(=O)[nH]c(=O)c2nsnc21` reads > 4 mM (inactive); that for `CC(=O)NCCc1cc2ccc(C)c(C)c2[nH]c1=O`, > 4 mM (inactive); that for `CNC(=S)Nc1cccc(C(=O)O)c1`, > 4 mM (inactive). The result for `NC(=O)c1oc2ccccc2c1N` reads > 4 mM (inactive).

As for `CNS(=O)(=O)c1cc(OC)ccc1OC`, the Kd was > 4 mM (inactive).
